Entries after “also recorded” stand apart in the source; their conditions may differ.
Tests used:
[1] = tested on: bactericidal anti-MenA mAb (JW-A1); test: Competitive ELISA with anti-MenA mAb, CPS as coating; assay type: binding; conditions: FIG. 5A
Description: (FIG. 5C) Competitive SPR of binding between anti-MenA mAb and immobilized biotylinated CPS. MenA CPS and deOAc CPS were the positive controls and the beta-glucan Laminarin was the negative control in A and B. MenA CPS and fragments thereof were used as positive controls and anti-MenC mAb was flown on the chip as negative control in C.
An important prerequisite for the immunogenicity of the carba-analogues is their ability to mimic the natural MenA CPS. To investigate this property in vitro, binding of oligomers with the different length to a bactericidal anti-MenA mAb (JW-A1) in comparison to CPS and a medium length oligomer with avDP ˜15 was tested as described in Giuntini, S. et al., PLoS One, 2012, 7, e34272; Tsang, R. S. et al., Clin. Diagn. Lab. Immunol., 2005, 12, 152-156; and Reyes, F. et al., Biologicals, 2013, 41, 275-278.

[2] = tested on: anti-MenA polyclonal serum; test: Competitive ELISA with anti-MenA polyclonal serum, CPS as coating; assay type: binding; conditions: serum from mice immunized with MenA-CRM197 conjugate, FIG. 5B
anti-deOAc MenA serum = test: Competitive ELISA against anti-deOAc MenA serum; assay type: binding
Procedure: This corroborated the propensity of carba DP8 to anti-MenA antibody binding. The different fragments were then tested against an anti-deOAc MenA serum.

anti-carbaMenA DP8 serum = test: Competitive ELISA of anti-carbaMenA DP8 serum; assay type: binding, BALB/c female mice
Procedure: (§1) Conjugates prepared as previously described from sized MenA polysaccharide with avDP8.5 and ˜15 were used as controls.
(§2) Mice received three subcutaneously (s.c.) doses (2 μg on saccharide base), two weeks apart. The neo-glycoconjugate induced an immune response at week 3, as observed by assaying the sera elicited by the conjugate against the same product coated on ELISA plates. At the serum dilutions tested no anti-CRM197 antibodies were detectable. Each of the conjugates gave antibodies recognizing the conjugated antigen and the specificity of this recognition was confirmed by competitive ELISA.

MenA CPS = test: Mice immunization, ELISA anti-MenA CPS IgG; assay type: in vivo, BALB/c mice; conditions: first study, Table 4
Procedure: as §1, §2
To test the immunogenicity of the conjugated carba DP6 and DP8 analogues with and without random acetylation, groups of eight BALB/c female mice were immunized with the neoglycoconjugates. Conjugated sized MenA polysaccharide was used as control. Mice were immunized with three subcutaneously (s.c.) doses (2 μg on saccharide base) two weeks apart. […]
All mice were housed under specific pathogen-free conditions. […] The antibody response induced by the glycoconjugates has been measured by ELISA. […] Finally, plates were incubated for 30 min at room temperature and read at 405 nm using the plate reader Spectramax 190. Sera titers were expressed as the reciprocal of sera dilution corresponding to a cut-off OD=1. […]

[3] = DSC, cited from earlier work; for Tm of the N-terminal domain: Johnson et al. 2012

| Substance | IC50 higher compared to the native CPS [1] | recognition of / binding to the anti-MenA mAb ([1]; competitive ELISA, non-acetylated carbaMenA oligomers as inhibitors, CPS coating) | performance as inhibitor [2] | IC50 (anti-deOAc MenA serum) [µM] | inhibition of the binding of the anti-carbaMenA DP8 serum (in words) (anti-carbaMenA DP8 serum) | anti-MenA CPS response lower than the benchmark MenA-CRM197 conjugate (MenA CPS) [fold lower] | Tm of the N-terminal domain [3] [°C] | Tm of C-terminal domains [3] [°C] |
| --- | --- | --- | --- | --- | --- | --- | --- | --- |
| 1-O-octa-(2-Acetamido-2-deoxy-5a-carba-α-D-mannopyranosyl-1-O-phosphoryl)-6-hexyl-amine [carba DP8] | 4 orders of magnitude | binding was observed; also recorded: clearly binding to anti-MenA antibodies | performed as inhibitor comparably to the deOAc CPS | 15.9 | to a greater extent than its conjugated form | 2 | – | – |
| wild-type v2: wild-type meningococcal fHbp variant 2 from strain 2996 | – | – | – | – | – | – | ≤ 40 | ≥ 80 |
| wild-type v3: wild-type meningococcal fHbp variant 3 from strain M1239 | – | – | – | – | – | – | ≤ 60 | ≥ 80 |
